Data on 2 compounds can be found in patent US6150361A, “Triazineone compounds for treating diseases due to sarcosystis, neospora and toxoplasma” (Bayer Corporation, priority 1998, dated 2000).

“And” between values parts separate entries of the source, which are not always exact repeats. Equal entries are not always repeated.

What all share (type): in vivo
A short description of data set [1]: Drug levels in serum after repeated doses of Toltrazuril in horses. Also on record: unit not given here. The note with it: for AVG drug level in serum, 48 Hrs / AVG drug level in serum, 96 Hrs / AVG drug level in serum, 240 Hrs: group average; for Drug level in serum, 48 Hrs / Drug level in serum, 96 Hrs / Drug level in serum, 240 Hrs: individual horse. The protocol:
(§1) This experiment was conducted in order to determine whether triazineones such as Toltrazuril can pass the blood-brain barrier. Normal horses were divided into three groups of three horses per group. Group 1 horses received Toltrazuril administered orally as a 5% suspension at a dose level of 2.5 mg/Kg. Group 2 horses received Toltrazuril administered orally as a 5% suspension at a dose level of 5.0 mg/Kg. Group 3 horses received Toltrazuril administered orally as a 5% suspension at a dose level of 7.5 mg/Kg. The dosing was repeated daily for 10 days. Blood samples were drawn at 48, 96 and 240 hours and the concentration of Toltrazuril, Toltrazuril sulfoxide and Ponazuril in the serum was measured. Ten days after the start of the treatment (Day 10), a sample of cerebral spinal fluid was removed from each horse and the concentrations of Toltrazuril, Toltrazuril Sulfoxide and Ponazuril were again measured in these samples. The concentrations of Toltrazuril, Toltrazuril Sulfoxide and Ponazuril in the serum and cerebral spinal fluid are reported in TABLES 5a and 5b.

Data set [2] in a line: Drug levels in cerebral spinal fluid after repeated doses of Toltrazuril in horses. Also on record: Drug level in Cerebral Spinal Fluid, Day 10 / AVG drug level in Cerebral Spinal Fluid, Day 10: unit not given here. The conditions noted are these: Day 10; for AVG drug level in Cerebral Spinal Fluid, Day 10: group average; for Drug level in Cerebral Spinal Fluid, Day 10: individual horse. The protocol: as §1

A short description of data set [3]: Passing of the blood-brain barrier in horses. The note with it: after oral Toltrazuril daily for 10 days. The protocol:
as §1

A short description of data set [4]: Pharmacokinetics of a single oral dose of Toltrazuril in horses (blood levels). The conditions noted are these: single oral dose of Toltrazuril 10 mg/kg; for concentration at 24 h / Concentration in mg/l of Blood, 24 hours: 24 h post treatment; for concentration at 24 h: read-out: Concentration in mg/l of Blood, 24 hours; for concentration at 48 h / Concentration in mg/l of Blood, 48 hours: 48 h post treatment; for concentration at 48 h: read-out: Concentration in mg/l of Blood, 48 hours; for concentration at 72 h / Concentration in mg/l of Blood, 72 hours: 72 h post treatment; for concentration at 72 h: read-out: Concentration in mg/l of Blood, 72 hours; for Concentration in mg/l of Blood, 24 hours: 1440 min; for Concentration in mg/l of Blood, 48 hours: 2880 min; for Concentration in mg/l of Blood, 72 hours: 4320 min. The protocol:
A pharmacokinetic study was conducted in horses comparing blood levels of Toltrazuril, Ponazuril and Toltrazuril Sulfoxide at various times post a single dose of Toltrazuril. All horses received a single dose of 10 mg/kg, which was administered orally as a suspension. Blood samples were drawn at the time of treatment (0) and at 0.25, 0.5, 1, 2, 4, 6, 12, 24, 48 and 72 hours post treatment. […] This was an indication that Ponazuril, alone, would produce acceptable blood levels that are envisioned to pass the blood-brain barrier, a characteristic required to treat neurological diseases such as those caused by Sarcocystis neurona, Toxoplasma gondii, Neospora caninum and Neospora

Where [5] appears, read: Toltrazuril 2.5 mg/Kg oral daily for 10 days.
Setting [6] is: Toltrazuril 5.0 mg/Kg oral daily for 10 days.
Setting [7] is: Toltrazuril 7.5 mg/Kg oral daily for 10 days.
The mark [8] stands for this setting: horse, blood, po, 10 mg/kg, suspension, one value per horse (A-F).
Where [9] appears, read: suspension, one value per horse (A-F), 10 mg/kg.

Regarding `Cc1cc(-n2c(=O)[nH]c(=O)n(C)c2=O)ccc1Oc1ccc(SC(F)(F)F)cc1` [Toltrazuril, reference compound], in data set [1] (setting [5]), the “AVG drug level in serum, 48 Hrs” value worked out at 6.70; the “AVG drug level in serum, 96 Hrs” value is 10.68; the “AVG drug level in serum, 240 Hrs” value stood at 13.37; the “Drug level in serum, 48 Hrs” value is 4.49 and 4.0 and 11.6. For the same compound, in data set [1] (setting [5]), the “Drug level in serum, 96 Hrs” value is 9.85 and 9.09 and 13.1; the “Drug level in serum, 240 Hrs” value was 15.29 and 9.60 and 15.21. For the same compound, in data set [1] (setting [6]), the “AVG drug level in serum, 48 Hrs” value came out at 8.57; the “AVG drug level in serum, 96 Hrs” value is on record as 15.46; the “AVG drug level in serum, 240 Hrs” value is on record as 19.68; the “Drug level in serum, 48 Hrs” value was 7.28 and 9.18 and 9.26. Moreover, in data set [1] (setting [6]), the “Drug level in serum, 96 Hrs” value was 14.17 and 14.03 and 18.19; the “Drug level in serum, 240 Hrs” value is 24.92 and 16.54 and 17.59. In addition, in data set [1] (setting [7]), the “AVG drug level in serum, 48 Hrs” value stood at 10.18; the “AVG drug level in serum, 96 Hrs” value is recorded as 21.92; the “AVG drug level in serum, 240 Hrs” value is recorded as 25.95; the “Drug level in serum, 48 Hrs” value is 9.90 and 10.46. Also, in data set [1] (setting [7]), the “Drug level in serum, 96 Hrs” value was 27.74 and 19.55 and 18.47; the “Drug level in serum, 240 Hrs” value was 30.08 and 24.15 and 23.53. For the same compound, in data set [2] (setting [5]), the “AVG drug level in Cerebral Spinal Fluid, Day 10” value (“AVG drug level … Day 10” for short) was determined as 0.15; the “Drug level in Cerebral Spinal Fluid, Day 10” value is 0.23 and 0.06 and 0.15. Moreover, in data set [2] (setting [6]), the “AVG drug level … Day 10” value was found to be 0.19; the “Drug level in Cerebral Spinal Fluid, Day 10” value is 0.19 and 0.12 and 0.26. In addition, in data set [2] (setting [7]), the “AVG drug level … Day 10” value is given as 0.39; the “Drug level in Cerebral Spinal Fluid, Day 10” value is 0.50 and 0.21 and 0.45. Also, the “crossing of the blood-brain barrier” value in data set [3] was “effectively cross the blood-brain barrier”. In data set [4] (setting [8]), the concentration at 24 h amounted to 6.43 mg/L, the concentration at 48 h came out at 7.61 mg/L and the concentration at 72 h came to 6.65 mg/L. For the same compound, the “Concentration in mg/l of Blood, 0.25 hours” value in data set [4] (suspension, 0.25 h post treatment, one value per horse (A-F), 10 mg/kg, 15 min) stood at 0.061 mg/L. The “Concentration in mg/l of Blood, 1 hour” value in data set [4] (suspension, 1 h post treatment, one value per horse (A-F), 10 mg/kg, 60 min) was found to be 3.286 mg/L. For the same compound, in data set [4] (setting [9]), the “Concentration in mg/l of Blood, 24 hours” value was 11.690 mg/L and 7.236 mg/L and 8.694 mg/L and 10.224 mg/L; the “Concentration in mg/l of Blood, 48 hours” value is 6.677 mg/L and 9.758 mg/L and 8.234 mg/L and 6.869 mg/L and 7.096 mg/L; the “Concentration in mg/l of Blood, 72 hours” value is 5.058 mg/L and 7.633 mg/L.
As to `Cc1cc(-n2c(=O)[nH]c(=O)n(C)c2=O)ccc1Oc1ccc([S+]([O-])C(F)(F)F)cc1` (centres unmarked) [Toltrazuril Sulfoxide], in data set [4] (horse, blood, po, 10 mg/kg, suspension, 0.25 h post treatment, one value per horse (A-F), read-out: Concentration in mg/l of Blood, 0.25 hours), the concentration at 0.25 h was less than 0.01 mg/L. In data set [4] (setting [8]), the concentration at 24 h was found to be 0.407 mg/L, the concentration at 48 h came out at 0.732 mg/L and the concentration at 72 h amounted to 0.592 mg/L. In data set [4], the “levels in serum/bloodstream of horses receiving Toltrazuril (in words)” value is given as “significant levels”. Moreover, in data set [4] (setting [9]), the “Concentration in mg/l of Blood, 24 hours” value is 0.566 mg/L and 0.461 mg/L and 0.481 mg/L and 0.633 mg/L; the “Concentration in mg/l of Blood, 48 hours” value was 0.454 mg/L and 0.477 mg/L and 0.749 mg/L and 0.741 mg/L and 0.642 mg/L; the “Concentration in mg/l of Blood, 72 hours” value is 0.346 mg/L and 0.377 mg/L.
